Data: ChEMBL document CHEMBL3882728, “Amino-substituted quinazoline derivatives as inhibitors of Beta-catenin/TCF-4 pathway and cancer treatment agents” (2009)

Assay: Cytotoxicity against human SV5A8 cells expressing SV40 binding sites driving firefly/renilla luciferase reporter gene after 24 hrs by luminometer
Format: cell-based
Settings: SV5A8, 24 h

| SMILES | IC50 [µM] |
| --- | --- |
| Cc1ccc2c(NCc3ccc(NC(=O)C4CCN(Cc5ccccc5)CC4)cc3)nc(N3CCC3)nc2c1 | 9.6 to 17.3 |
| Cc1ccc2nc(N(C)C)nc(NCc3ccc(NC(=O)c4ccc(F)cc4)cc3)c2c1 | 5.82 to 11.6 |
| CNc1nc(NCc2ccc(NC(=O)c3cccnc3)cc2)c2cc([N+](=O)[O-])ccc2n1 | > 23.3 |
| CNc1nc(NCc2ccc(NC(=O)c3ccc(Cl)nc3)cc2)c2cccc(C)c2n1 | 2.89 to 21.6 |
| Cc1cc(C)c2nc(N3CCN[C@@H](C)C3)nc(NCc3ccc(NC(=O)c4ccc(F)cc4)cc3)c2c1 | > 5.01 |
| CNc1nc(NCc2ccc(NC(=O)c3ccc(Cl)cc3F)cc2)c2cc(C)ccc2n1 | > 2.78 |
